From the NIST ThermoML archive (doi:10.1021/acs.jced.9b00507)

Test: xn = mol fraction of the nth substance listed
Settings: 100 kPa, Liquid; for viscosity: Concentric cylinders viscometry; for mass density: Vibrating tube method

CCCCCCn1cc[n+](C)c1.O=[N+]([O-])[O-] [1-hexyl-3-methylimidazolium nitrate] + CCCCCCCO
Settings | mass density [kg/m3] | viscosity [mPa·s]
293.15 K, x1 = 0.0812 | 857.5 | 12.74
293.15 K, x1 = 0.1608 | 889.6 | 22.91
293.15 K, x1 = 0.2395 | 919 | 36.98
293.15 K, x1 = 0.3493 | 956.7 | 67.76
293.15 K, x1 = 0.4392 | 985 | 100.46
293.15 K, x1 = 0.5749 | 1023.9 | 177.42
293.15 K, x1 = 0.6491 | 1043.4 | 234.42
293.15 K, x1 = 0.7398 | 1065.6 | 338.84
293.15 K, x1 = 0.8496 | 1090.2 | 508.16
293.15 K, x1 = 0.9381 | 1108.4 | 677.64
293.15 K, x1 = 1 | 1120.3 | 804.17
298.15 K, x1 = 0.0812 | 853.9 | 10.09
298.15 K, x1 = 0.1608 | 885.9 | 16.67
298.15 K, x1 = 0.2395 | 915.3 | 25.12
298.15 K, x1 = 0.3493 | 953.1 | 41.88
298.15 K, x1 = 0.4392 | 981.5 | 61.38
298.15 K, x1 = 0.5749 | 1020.5 | 109.9
298.15 K, x1 = 0.6491 | 1040 | 150.66
298.15 K, x1 = 0.7398 | 1062.2 | 219.28
298.15 K, x1 = 0.8496 | 1087.1 | 334.2
298.15 K, x1 = 0.9381 | 1105.4 | 460.97
298.15 K, x1 = 1 | 1117.5 | 545.25
303.15 K, x1 = 0.0812 | 850.3 | 7.94
303.15 K, x1 = 0.1608 | 882.2 | 12.19
303.15 K, x1 = 0.2395 | 911.5 | 17.82
303.15 K, x1 = 0.3493 | 949.3 | 28.31
303.15 K, x1 = 0.4392 | 977.7 | 40.09
303.15 K, x1 = 0.5749 | 1016.8 | 69.18
303.15 K, x1 = 0.6491 | 1036.3 | 94.19
303.15 K, x1 = 0.7398 | 1058.6 | 136.14
303.15 K, x1 = 0.8496 | 1083.5 | 213.3
303.15 K, x1 = 0.9381 | 1102.1 | 303.7
303.15 K, x1 = 1 | 1114.3 | 369.14
308.15 K, x1 = 0.0812 | 846.5 | 6.64
308.15 K, x1 = 0.1608 | 878.3 | 9.57
308.15 K, x1 = 0.2395 | 907.7 | 13.27
308.15 K, x1 = 0.3493 | 945.5 | 19.95
308.15 K, x1 = 0.4392 | 973.9 | 27.99
308.15 K, x1 = 0.5749 | 1013 | 46.34
308.15 K, x1 = 0.6491 | 1032.6 | 61.8
308.15 K, x1 = 0.7398 | 1054.9 | 91.83
308.15 K, x1 = 0.8496 | 1080 | 147.57
308.15 K, x1 = 0.9381 | 1098.7 | 206.54
308.15 K, x1 = 1 | 1111.1 | 257.59
313.15 K, x1 = 0.0812 | 842.8 | 5.43
313.15 K, x1 = 0.1608 | 874.6 | 7.36
313.15 K, x1 = 0.2395 | 903.9 | 9.99
313.15 K, x1 = 0.3493 | 941.7 | 14.27
313.15 K, x1 = 0.4392 | 970.1 | 19.02
313.15 K, x1 = 0.5749 | 1009.3 | 31.62
313.15 K, x1 = 0.6491 | 1028.9 | 42.17
313.15 K, x1 = 0.7398 | 1051.3 | 62.32
313.15 K, x1 = 0.8496 | 1076.5 | 101.4
313.15 K, x1 = 0.9381 | 1095.3 | 142.89
313.15 K, x1 = 1 | 1107.8 | 185.67
318.15 K, x1 = 0.0812 | 839.1 | 4.59
318.15 K, x1 = 0.1608 | 870.8 | 6.17
318.15 K, x1 = 0.2395 | 900.2 | 7.85
318.15 K, x1 = 0.3493 | 937.9 | 10.99
318.15 K, x1 = 0.4392 | 966.4 | 14.45
318.15 K, x1 = 0.5749 | 1005.6 | 22.7
318.15 K, x1 = 0.6491 | 1025.4 | 30.06
318.15 K, x1 = 0.7398 | 1047.9 | 43.55
318.15 K, x1 = 0.8496 | 1073.1 | 71.58
318.15 K, x1 = 0.9381 | 1092.1 | 106.41
318.15 K, x1 = 1 | 1104.7 | 140.18
323.15 K, x1 = 0.0812 | 835.3 | 3.84
323.15 K, x1 = 0.1608 | 867 | 5.01
323.15 K, x1 = 0.2395 | 896.4 | 6.43
323.15 K, x1 = 0.3493 | 934.2 | 8.89
323.15 K, x1 = 0.4392 | 962.6 | 11.59
323.15 K, x1 = 0.5749 | 1001.9 | 17.99
323.15 K, x1 = 0.6491 | 1021.8 | 23.44
323.15 K, x1 = 0.7398 | 1044.4 | 34.2
323.15 K, x1 = 0.8496 | 1069.8 | 54.87
323.15 K, x1 = 0.9381 | 1088.9 | 82.79
323.15 K, x1 = 1 | 1101.6 | 110.94
